Ten compounds from patent US5859032A, “Pyridine derivative, anti-ulcer drug, and antibacterial drug” (priority 1996, dated 1999) can be followed below.

Data set [1] relates to isolated gastric fundic gland. The experiment in a line: CAP: Acid Secretion Inhibition Test In Vitro ([14C]-aminopyrine uptake test). Format: cell-based, Japanese White rabbit. The settings on record: Oryctolagus cuniculus, 40 min, 10^-5 M, histamine 10^-5 M, 37° C., read-out: CAP: acid secretion inhibitory rate. Here is the method: CAP: Acid Secretion Inhibition Test In Vitro
The acid secretion inhibitory activity in a cell level is studied. It can also be used for studying the mechanism of the effect. […]
ii-a) Preparation of isolated gastric fundus gland suspension
First, an isolated gastric fundic gland sample was prepared. Namely, a male Japanese White rabbit (2.5 to 3 kg) was anesthetized to death with Nembutal™ and then the abdomen was incised. Immediately thereafter, the stomach was removed and, after its pyloric and cardiac antrum were severed, incised along its greater curvature into two sheets. The gastric contents adhering to the mucosal surface was washed out with ice-cooled PBS (-) and then carefully washed therein. The gastric wall was spread on a cork board with its mucosal surface facing up and the feed and mucus thereon were completely removed with sterile gauze. The mucosa was separated therefrom by a spatula and then collected in ice-cooled PBS (-). After being washed twice with PBS (-), the mucosa was minced into 2-3 mm^3 pieces by scissors. These pieces were further washed twice with a nutrient solution. The nutrient solution comprises 132.4 mM of NaCl, 5.4 mM of KCl, 5 mM of Na2 HPO4. 12H2 O, 1 mM of NaH2 PO4. 2H2 O, 1.2 mM of MgSO4, 1 mM of CaCl 2, 25 mM of HEPES, 2 mg/ml of glucose, and 1 mg/ml of BSA. Into 70 ml of the nutrient solution containing 1 mg/ml of collagenase, minced mucosal pieces were dispersed and intensely stirred in a conical flask with a stirrer at 37° C. for 40 to 60 minutes. During this period, 100% O2 was sprayed on the nutrient solution surface and the pH was appropriately measured such that it was immediately adjusted to pH 7.4, when the value was therebelow, with a base. The nutrient solution was added to the reaction solution so as to attain the total amount of about 200 ml. After being filtered through a mesh, the suspension was divisionally introduced into 50 ml centrifuge tubes and left for 15 minutes such that gastric fundic gland was deposited. The supernatant was repeatedly removed by an aspirator, dispersed in the nutrient solution, and then left such that the gastric fundic gland was washed three times. At this time, without using a pipette, the suspension was alternately introduced into two centrifuge tubes so as to effect dispersion. The number of cells was counted under microscope and adjusted to 1.6×10^6 cells/ml. […]
ii-b) [^14 C]-aminopyrine uptake test
Then, [^14 C]-aminopyrine uptake test was performed. After an Eppendorf tube was weighed, 10 μl (final concentration: 10^-5 M) of histamine dissolved in the above-mentioned nutrient solution, 10 μl (final concentration: 10^-5 M) of the test compound dissolved in DMSO, and 10 μl (final concentration: 0.05 μCi/ml) of [^14 C]-aminopyrine diluted with the nutrient solution were introduced therein and then 970 μl of the isolated gastric fundic gland suspension prepared above was added thereto. Subsequently, this mixture was shaken at 37° C. for 40 minutes at 125 cycles/minute. After being centrifuged for 30 minutes, 200 μl of its supernatant was collected into a mini-vial, while the rest was removed by an aspirator. The gland pellet was completely dried as the tube with its lid being opened was kept for one night in a drying oven at 80° C. and then the lid was closed and the weight was determined at room temperature. Then 100 μl of 1N KOH was added thereto and the tube with its lid being closed was treated at 60° C. for 1 to 2 hours so as to dissolve the pellet. Then, the contents thereof were transferred to a mini-vial. Into the mini-vial containing the supernatant or gland pellet, 4 ml of Atomlite™ was added and then the radioactivity was measured by a liquid scintillation counter. Here, after the radioactivity of the gland pellet was corrected by using a sample in which 20 mM of NaSCN was added so as to cancel the hydrogen ion concentration gradient, the integration ratio of aminopyrine specifically trapped by the gland pellet was calculated. […]

The test system of another data set is gastric mucosa. Description: PD: Gastric Mucosal Integrity Test. Format: in vivo, rat (male CDj:SD). Also noted: key: 5: Same as the control with no recognizable damage at all.; 4: Though a slight PD-decreasing tendency suggesting a slight possibility of mucosal damage is found, there is no problem.; 3: Though a weak decrease in PD and a possibility of a weak mucosal damage is recognized, there is no substantial problem.; 2: Medium degree of decrease in PD is found and a mucosal damage is recognized.; 1: Heavy degree of decrease in PD is found and a remarkable mucosal damage is recognized. The note with it: rat, 100 mg/kg into chamber, 60 minutes. The procedure:
PD: Gastric Mucosal Integrity Test
In this case, since the sample compound has a necrotizing effect, it is inappropriate as an anti-ulcer medicament.
Therefore, the gastric mucosal potential difference (PD), which reflects the integrity of the gastric mucosa, is measured so as to confirm that the sample compound has no damaging effect on gastric mucosa, which is toxicity at gastric mucosal level.
Male CDj:SD rats (7 to 8-week-old) were fasted overnight, but allowed free access to water, and then, under urethane anesthesia (1.25 g/kg, i.p.), fixed to a cork board on its back. The abdomen of each rat was incised, and a small incision was made in the forestomach. Then, the inside of the stomach was washed with physiological saline heated at 37° C. From the forestomach, along the greater curvature thereof, the stomach was incised without damaging blood vessels. After the height of the cork board was adjusted on a jack, the stomach was mounted on ex vivo chamber. The area of the gastric mucosa exposed to the inside of this chamber was 2.5 cm^2. The inside of the chamber was perfused with physiological saline warmed at 37° C. by micro tube pump. By using an agar bridge containing 3M KCl, the potential difference between the chamber and the abdominal cavity was measured by a PD meter. Here, the rectal temperature was measured to control the body temperature during the experiment. […] To a control, the vehicle was administered.
The change in PD during 60 minutes after the administration of 100 mg/kg of the sample compound was collectively studied and, with reference to the positive control, classified into 5 levels as follows:
5: Same as the control with no recognizable damage at all.
3: Though a weak decrease in PD and a possibility of a weak mucosal damage is recognized, there is no substantial problem.
2: Medium degree of decrease in PD is found and a mucosal damage is recognized.
1: Heavy degree of decrease in PD is found and a remarkable mucosal damage is recognized.

Data set [2] relates to gastric acid secretion (pylorus-ligated, histamine-stimulated rats). The experiment in a line: VOL, TAO: Acid Secretion Inhibition Test In Vivo. Details: species or system rat (male Crj:Donryu). The settings on record: rat, 100 mg/kg, oral; histamine 30 mg/kg s.c. Here is the method:
VOL, TAO: Acid Secretion Inhibition Test In Vivo
Inhibitory effect on acid secretion in vivo is confirmed.
Male Crj:Donryu rats (7-week-old) were fasted overnight but allowed free access to water. In each group, 8 to 10 of these rats were used under urethane anesthesia (1.25 g/kg). […] 30 minutes later, the abdomen of each was incised and the pylorus was ligated. 30 minutes after the ligation, 30 mg/kg of histamine dissolved in physiological saline was subcutaneously administered and, 3 hours thereafter, the rat was sacrificed with carbon dioxide. Immediately thereafter, each stomach was removed and the gastric contents were collected and each volume was determined. The total acid output was determined by titration of the gastric juice with 0.1N NaOH.
With respect to the gastric juice volume (VOL) and the total acid output (TAO), the effects obtained when 100 mg/kg of the sample compound had been administered were expressed as their respective inhibitory rates (%) as follows:
each inhibitory rate (%)=(1-(value in sample group/value in control

For `CC(C)=CCC/C(C)=C/COc1ccc(C(=O)NCCc2ccccn2)cc1` [Example 1, 2-[2-(4-geranyloxybenzoylamino)ethyl]pyridine], in data set [1], the inhibition at 10 µM turned out to be 97%. In addition, the “PD: change in gastric mucosal potential difference (5 levels)” value with gastric mucosa was determined as 5. In data set [2], the “TAO: total acid output inhibitory rate” value came out at 8% and the “VOL: gastric juice volume inhibitory rate” value is on record as 4%.
Consider `CC(C)=CCC/C(C)=C/COc1ccc(C(=O)NCCc2ccncc2)cc1` [Example 2, 4-[2-(4-geranyloxybenzoylamino)ethyl]pyridine], for which the inhibition at 10 µM in data set [1] is 99%. In addition, in the data set with gastric mucosa, the “PD: change in gastric mucosal potential difference (5 levels)” value was 3. In data set [2], the “TAO: total acid output inhibitory rate” value came to 25% and the “VOL: gastric juice volume inhibitory rate” value stood at 17%.
`CC(C)=CCC/C(C)=C/COc1ccc(C(=O)NCc2ccncc2)cc1` [Example 3, 4-(4-geranyloxybenzoylaminomethyl)pyridine]: the inhibition at 10 µM in data set [1] is 99%. Moreover, in the data set with gastric mucosa, the “PD: change in gastric mucosal potential difference (5 levels)” value is 3.
In the same order, the values of `CC(C)=CCC/C(C)=C/COc1ccc(C(=O)Nc2cccnc2)cc1` [Example 4, 3-(4-geranyloxybenzoylamino)pyridine] are 44% and 5.
On to `CC(C)=CCOc1ccc(OCC=C(C)C)c(C(=O)NCCc2ccncc2)c1` [Example 6, 4-[2-(2,5-diprenyloxybenzoylamino)ethyl]pyridine], for which the inhibition at 10 µM in data set [1] came to 100%. The “PD: change in gastric mucosal potential difference (5 levels)” value in the data set on gastric mucosa was 5.
Consider `CC(C)=CCC/C(C)=C/COc1ccc(C(=O)NCCNc2cccnc2)cc1` [Example 7, 3-[2-(4-geranyloxybenzoylamino)ethylamino]pyridine], for which the inhibition at 10 µM in data set [1] is 100%. Also, the “PD: change in gastric mucosal potential difference (5 levels)” value in the data set on gastric mucosa is 3.
Take `COc1ccc(NCCNC(=O)c2ccc(OC/C=C(\C)CCC=C(C)C)cc2)nc1` [Example 8, 2-[2-(4-geranyloxybenzoylamino)ethylamino]-5-methoxypyridine]: the inhibition at 10 µM in data set [1] was 97%. The “PD: change in gastric mucosal potential difference (5 levels)” value in the data set with gastric mucosa amounted to 5. For the same compound, in data set [2], the “TAO: total acid output inhibitory rate” value is listed as -7% and the “VOL: gastric juice volume inhibitory rate” value is listed as 7%.
`CC(C)=CCC/C(C)=C/COc1ccc(C(=O)NCCNc2cc(C)cc(C)n2)cc1` [Example 10, 2,4-dimethyl-6-[2-(4-geranyloxybenzoylamino)ethylamino]pyridine]: the inhibition at 10 µM in data set [1] turned out to be 101%. The “PD: change in gastric mucosal potential difference (5 levels)” value in the data set with gastric mucosa is 3.
In the same order, the values of `COc1ccc(SCCNC(=O)c2ccc(OC/C=C(\C)CCC=C(C)C)cc2)nc1` [Example 11, 2-[2-(4-geranyloxybenzoylamino)ethylthio]-5-methoxypyridine] are 55% and 4.
In the same order, the values of `CC(C)=CCC/C(C)=C/COc1ccc(C(=O)NCC(=O)Nc2ccccn2)cc1` [Example 13, 2-[2-(4-geranyloxybenzoylamino)acetylamino]pyridine] are 31% and 5.
